From PMC8672851 (Science translational medicine, 2021)

Experiments:
[1] = system: patient-derived primary AML cells; assay: orthotopic patient-derived xenograft; format: in vivo, mouse; settings: PDX; for leukemic disease burden: hCD45+ cells in peripheral blood or bone marrow
[2] = system: MLL-AF9 cells; assay: MLL-AF9 syngeneic AML mouse model; format: in vivo; settings: for leukemic disease burden: peripheral blood / bone marrow
[3] = system: MV4-11-luc cells; settings: MV4-11 xenograft
[4] = system: panel of human cancer cell lines; assay: viability across a panel of human cancer cell lines; format: cell-based; settings: 131 human cancer cell lines, 16 cancer types; three days
[5] = system: primary patient AML blasts; assay: colony-forming assay of primary patient AML samples in methylcellulose; format: cell-based, human; settings: leukemia cells from patients with AML
[6] = phase I trial; ref NCT02243917; cited from earlier work
[7] = format: in vivo; settings: mice
[8] = preclinical pharmacokinetics in multiple species; format: in vivo; settings: preclinical studies in multiple species
[9] = system: MV4-11 cells; assay: combination with doxorubicin in MV4-11 cell line; format: cell-based, human; settings: MV4-11 AML cell line
[10] = system: human cone PDE6 (PDE6C); settings: in vitro biochemical assays; relative to CB-5083
[11] = system: P-ATM (S1981); assay: ATM phosphorylation upon etoposide DSB induction; format: cell-based, human; settings: upon etoposide DSBs induction
[12] = system: MV4-11 cells; assay: cellular viability of MV4-11 AML cell line; format: cell-based, human
[13] = in vivo
[14] = system: poly-ubiquitinated proteins, GRP78, spliced XBP-1, ATF-4; format: cell-based, human
[15] = system: γH2AX; assay: FACS analysis of intracellular gammaH2AX in AML cells; format: cell-based, human
[16] = system: MV4-11 and UT-7 AML cell lines; assay: Annexin V/propidium iodide staining and flow cytometry; format: cell-based, human; settings: 0.2 μM for 8 days
[17] = system: UT-7 cells expressing VCP (A530T); assay: growth inhibition of UT-7 cells expressing NMS-873-resistant VCP; format: cell-based, human; settings: four days
[18] = system: RG37-DR-GFP cells; assay: homologous recombination reporter; format: cell-based; settings: 0.4 μM; 48 hours post-transfection with I-SceI
[19] = system: GC92-NHEJ-CD4 cells; assay: non-homologous end-joining reporter; format: cell-based; settings: 0.4 μM; 48 hours post-transfection with I-SceI
[20] = cited from earlier work

## Cc1cc2c(C(N)=O)cccc2n1-c1nc2c(c(NCc3ccccc3)n1)COCC2 [CB-5083]
[1]
  leukemic disease burden: substantially decreased disease burden
[2]
  survival: prolonged mice survival
  leukemic disease burden: decreased disease burden
[3]
  disease burden (bioluminescence): decreased disease burden
  survival: prolonged mice survival
[4]
  sensitivity of AML cell lines versus other cancer subtypes: more sensitive
[5]
  colony formation of AML blasts: impaired the capacity of AML blasts to form colonies
[6]
  myelosuppression in patients: not myelosuppressive
[7]
  tolerability (weight, blood counts): no major weight loss or hematopoietic toxicity

## Cc1cc2c(C(N)=O)cccc2n1-c1nc2c(c(NCc3ccccc3)n1)CCCN2 [CB-5339]
[1]; 90 mg/kg
  survival: prolonged mice survival
[1]
  leukemic disease burden: decreased bone marrow leukemic infiltration
[8]
  bioavailability compared to CB-5083: higher bioavailability
  clearance compared to CB-5083: lower clearance
[2]
  survival: prolonged survival
  leukemic disease burden: decreased circulating leukemic cells
[9]
  interaction with doxorubicin: synergized with doxorubicin
[10]
  fold less active on human cone PDE6 (PDE6C) compared to CB-5083: 15 fold
[11]
  effect on ATM phosphorylation: impaired ATM phosphorylation
[12]
  IC50: 186 nM
[7]
  tolerability (weight, blood counts): well tolerated
[13]
  times lower Cmax in rat retina compared to CB-5083: 31 times
[14]; AML context
  concentration at which ATF-4 accumulated: ≥ 0.8 µM
  concentration at which ER stress marker GRP78 accumulated: ≥ 0.4 µM
  concentration at which spliced XBP-1 accumulated: ≥ 1.6 µM
[14]; AML context, dose-dependent
  concentration inducing polyubiquitin protein accumulation: ≥ 0.4 µM
[15]; 0.2 μM
  effect on γH2AX accumulation: increased γH2AX accumulation

## Cc1cc(OCc2nnc(SC3CCCC3)n2-c2cccnc2)ccc1-c1ccc(S(C)(=O)=O)cc1 [NMS-873]
[16]
  cell death / apoptosis: induced Annexin-positive cell death
[17]
  effect of VCP (A530T) expression on compound-induced loss of viability: rescued the loss of viability
[18]
  effect on homologous recombination (HR) DSB repair: impairment of HR
[5]
  colony formation of AML blasts: impaired the capacity of AML blasts to form colonies
[19]
  effect on non-homologous end-joining (NHEJ): did not impair NHEJ
[14]; AML cells
  concentration at which poly-ubiquitinated proteins started to accumulate: 5 µM
[15]; MV4-11 and UT-7, 0.4 μM, 72 hours
  effect on γH2AX: increased γH2AX
[20]
  pharmacological and bioavailability properties: lacks appropriate pharmacological and bioavailability properties
